ChEMBL document CHEMBL1201862, “PubChem BioAssay data set” (2004)
Activity calls are given as the source filed them.

Assays:
[1] = off-target signal loss in HeLa-CEM21 co-culture – HeLa F-luc CTL cells, cherry-picked, counter-screen for HIV-1 Env fusion inhibitor project, dose response (AID 652040); assay type: functional, cell-based;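 note: potency for signal decrease marking cytotoxic or nonspecific inhibition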
[2] = Luminescence Cell-Based Dose Confirmation HTS to Identify Inhibitors of Platelet Dense Granule Release. [Related pubchem assays: 1663 (Primary HTS), 1678 (Summary of Project)]; assay type: functional
[3] = HIV-1 AD8 envelope cell-cell fusion blockers – cherry-pick, dose response (AID 652062); assay type: functional, cell-based;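 note: luciferase signal from cell-cell fusion driven by HIV-1 clade B AD8 Env; potency is for inhibitors of fusion seen as a drop in luminescence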
[4] = blockers of HIV-1 envelope-mediated cell-cell fusion – cherry-pick, dose response (AID 652057); assay type: functional, cell-based
[5] = blockers of HIV-1 ZM109 envelope-driven cell-cell fusion – HeLa effector, CEM target cells, luciferase, cherry-pick, dose response (AID 652058); assay type: functional, cell-based;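 note: luciferase signal from HIV-1 Env mediated cell-cell fusion of effector and target cells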
[6] = target: Luciferin 4-monooxygenase (Photinus pyralis, UniProt P08659); assay: inhibition of purified Photinus pyralis luciferase – biochemical, luminescence, dose response (AID 1891)
[7] = target: T1, Fatty acid synthase (Homo sapiens, UniProt P49327); assay: inhibition of human FAS-TE enzyme activity – biochemical, endpoint fluorescence intensity, uHTS hits, dose response (AID 624327); assay type: functional;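 note: fluorescence from hydrolysis of an O-methyl fluorescein acyl ester substrate by the enzyme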
[8] = target: T1, Fatty acid synthase; assay: inhibition of human FAS-TE enzyme activity – biochemical, kinetic fluorescence intensity, dose response (AID 624326); assay type: functional;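 note: rate of fluorescence rise from hydrolysis of a fluorogenic O-methyl fluorescein ester substrate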
[9] = target: T2, Short transient receptor potential channel 4 (Mus musculus, UniProt Q9QUQ5); assay: block of DAMGO-driven TRPC4 calcium entry – cell-based, HEK293 TRPC4/mu-opioid, Fluo-4 calcium, dose response (AID 434942); assay type: functional;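 note: potency of inhibitors blocking the TRPC4 calcium response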
T2 sequence (Q9QUQ5 whole entry): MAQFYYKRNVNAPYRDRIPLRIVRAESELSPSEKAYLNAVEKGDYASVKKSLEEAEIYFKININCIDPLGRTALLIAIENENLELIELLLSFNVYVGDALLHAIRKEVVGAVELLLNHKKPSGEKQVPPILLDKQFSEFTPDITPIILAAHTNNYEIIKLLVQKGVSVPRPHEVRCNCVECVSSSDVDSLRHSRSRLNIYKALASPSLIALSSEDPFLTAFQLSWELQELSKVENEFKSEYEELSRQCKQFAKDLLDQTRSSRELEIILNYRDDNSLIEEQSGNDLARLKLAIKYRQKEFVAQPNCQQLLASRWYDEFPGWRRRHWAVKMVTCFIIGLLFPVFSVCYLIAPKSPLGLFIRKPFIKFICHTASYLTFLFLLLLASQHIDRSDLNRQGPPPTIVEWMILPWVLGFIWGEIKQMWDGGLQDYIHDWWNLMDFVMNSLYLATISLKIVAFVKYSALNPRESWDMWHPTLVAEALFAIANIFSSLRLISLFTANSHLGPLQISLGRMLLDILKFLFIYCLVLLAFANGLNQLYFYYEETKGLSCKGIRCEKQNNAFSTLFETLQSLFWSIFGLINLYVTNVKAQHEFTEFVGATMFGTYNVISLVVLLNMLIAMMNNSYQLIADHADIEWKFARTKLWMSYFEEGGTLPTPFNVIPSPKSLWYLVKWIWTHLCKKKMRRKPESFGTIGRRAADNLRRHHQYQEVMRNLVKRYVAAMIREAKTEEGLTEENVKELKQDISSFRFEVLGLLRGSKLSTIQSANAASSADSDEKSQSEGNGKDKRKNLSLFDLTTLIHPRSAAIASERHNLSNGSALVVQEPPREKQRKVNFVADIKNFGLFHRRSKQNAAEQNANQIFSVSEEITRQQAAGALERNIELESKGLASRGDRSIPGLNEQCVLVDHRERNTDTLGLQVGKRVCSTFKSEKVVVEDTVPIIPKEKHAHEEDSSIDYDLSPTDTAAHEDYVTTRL

[10] = target: T3, Zinc finger protein mex-5 (Caenorhabditis elegans, UniProt Q9XUB2); assay: potency of MEX-5 RNA-binding blockers – biochemical, C. elegans, fluorescence polarization, dose response (AID 1960)
T3 sequence (Q9XUB2 whole entry): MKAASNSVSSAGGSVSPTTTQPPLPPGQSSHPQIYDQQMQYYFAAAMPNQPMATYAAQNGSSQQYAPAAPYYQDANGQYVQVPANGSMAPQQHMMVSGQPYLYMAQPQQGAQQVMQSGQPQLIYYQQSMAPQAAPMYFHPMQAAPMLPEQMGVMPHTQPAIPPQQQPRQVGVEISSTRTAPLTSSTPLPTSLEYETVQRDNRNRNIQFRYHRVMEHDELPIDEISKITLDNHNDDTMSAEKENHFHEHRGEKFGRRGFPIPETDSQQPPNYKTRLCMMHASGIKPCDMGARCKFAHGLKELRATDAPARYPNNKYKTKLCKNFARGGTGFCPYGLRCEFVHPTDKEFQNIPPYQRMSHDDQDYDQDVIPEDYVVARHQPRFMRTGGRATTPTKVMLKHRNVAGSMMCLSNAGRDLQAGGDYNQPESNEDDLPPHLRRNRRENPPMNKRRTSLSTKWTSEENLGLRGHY

[11] = microbe, parasite or virus in culture; assay type: functional; settings: Mycobacterium tuberculosis
[12] = target: T4, RNA-binding protein pos-1 (Caenorhabditis elegans, UniProt G5EF15); assay: disruptors of C. elegans POS-1 RNA interaction – biochemical, fluorescence polarization, dose response (AID 1964);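 note: purified POS-1 fused to maltose binding protein made in E. coli; potency of compounds blocking POS-1 binding to fluorescent RNA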
T4 sequence (G5EF15 whole entry): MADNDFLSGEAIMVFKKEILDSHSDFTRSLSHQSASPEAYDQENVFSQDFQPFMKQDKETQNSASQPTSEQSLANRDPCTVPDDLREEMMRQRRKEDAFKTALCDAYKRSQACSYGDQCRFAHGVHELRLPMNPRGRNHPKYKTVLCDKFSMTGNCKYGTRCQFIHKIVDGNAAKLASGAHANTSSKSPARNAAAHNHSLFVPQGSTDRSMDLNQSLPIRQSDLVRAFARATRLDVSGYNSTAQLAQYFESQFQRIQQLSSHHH

[13] = viability of HCT116 lacking mutant beta-catenin – cell-based, human colon tumor, dose response (AID 1045); assay type: functional;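 note: HCT116 colon tumor cells with beta catenin knocked out; cells exposed to compound for 60 hours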
[14] = A549 cell cytotoxicity, dose response, cytotoxicity control, plate reader, cherry-pick, antagonist series (AID 743412); assay type: functional, cell-based
[15] = NIH3T3 cell viability loss – ATP luminescence, mouse fibroblasts, counter-screen, dose response (AID 2010); assay type: functional, cell-based;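 note: cells exposed to compound for about 90 hours before reading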
[16] = viability of PTEN-deleted HCT116 cells – cell-based, HCT116 PTEN knockout, dose response (AID 1047); assay type: functional;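 note: HCT116 colon tumor cells with PTEN knocked out; cells exposed to compound for 60 hours before readout; potency for loss of cell viability measured by luminescence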
[17] = blockade of melanocortin 4 receptor signaling – cell-based, plate reader, cherry pick, counter-screen for LGR2 antagonist project, dose response (AID 743444); assay type: functional;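 note: transfected HEK 293 cells stimulated with alpha-MSH peptide; potency of inhibitors of the alpha-MSH evoked signal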
[18] = Trypanosoma cruzi growth suppression in host cells – NIH3T3 host cells, beta-gal luminescence, confirmation (AID 2044); assay type: functional, cell-based;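 note: intracellular parasites grown in NIH/3T3 mouse fibroblasts as host cells; luminescent beta-galactosidase reporter signal from transgenic T. cruzi replicating inside host cells; inhibitors lower the luminescence signal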
[19] = target: Induced myeloid leukemia cell differentiation protein Mcl-1 (Homo sapiens, UniProt Q07820); assay type: functional
[20] = luciferase reporter signal suppression in cells – H4 neuroglioma cells, luminescence, dose response (AID 1990); assay type: functional, cell-based
[21] = Luminescence Cell-Based Dose Response HTS to Identify Inhibitors of 5'UTR Stem-Loop Driven Prion Protein mRNA Translation in H4 Neuroglioblastoma Cells. [Related pubchem assays: 1827 (Project Summary), 1813 (Primary HTS)]; assay type: functional
[22] = alpha-synuclein stem-loop luciferase translation blockers – H4 neuroglioma cells, luminescence, confirmation (AID 1988); assay type: functional, cell-based

T1 sequence (P49327 whole entry): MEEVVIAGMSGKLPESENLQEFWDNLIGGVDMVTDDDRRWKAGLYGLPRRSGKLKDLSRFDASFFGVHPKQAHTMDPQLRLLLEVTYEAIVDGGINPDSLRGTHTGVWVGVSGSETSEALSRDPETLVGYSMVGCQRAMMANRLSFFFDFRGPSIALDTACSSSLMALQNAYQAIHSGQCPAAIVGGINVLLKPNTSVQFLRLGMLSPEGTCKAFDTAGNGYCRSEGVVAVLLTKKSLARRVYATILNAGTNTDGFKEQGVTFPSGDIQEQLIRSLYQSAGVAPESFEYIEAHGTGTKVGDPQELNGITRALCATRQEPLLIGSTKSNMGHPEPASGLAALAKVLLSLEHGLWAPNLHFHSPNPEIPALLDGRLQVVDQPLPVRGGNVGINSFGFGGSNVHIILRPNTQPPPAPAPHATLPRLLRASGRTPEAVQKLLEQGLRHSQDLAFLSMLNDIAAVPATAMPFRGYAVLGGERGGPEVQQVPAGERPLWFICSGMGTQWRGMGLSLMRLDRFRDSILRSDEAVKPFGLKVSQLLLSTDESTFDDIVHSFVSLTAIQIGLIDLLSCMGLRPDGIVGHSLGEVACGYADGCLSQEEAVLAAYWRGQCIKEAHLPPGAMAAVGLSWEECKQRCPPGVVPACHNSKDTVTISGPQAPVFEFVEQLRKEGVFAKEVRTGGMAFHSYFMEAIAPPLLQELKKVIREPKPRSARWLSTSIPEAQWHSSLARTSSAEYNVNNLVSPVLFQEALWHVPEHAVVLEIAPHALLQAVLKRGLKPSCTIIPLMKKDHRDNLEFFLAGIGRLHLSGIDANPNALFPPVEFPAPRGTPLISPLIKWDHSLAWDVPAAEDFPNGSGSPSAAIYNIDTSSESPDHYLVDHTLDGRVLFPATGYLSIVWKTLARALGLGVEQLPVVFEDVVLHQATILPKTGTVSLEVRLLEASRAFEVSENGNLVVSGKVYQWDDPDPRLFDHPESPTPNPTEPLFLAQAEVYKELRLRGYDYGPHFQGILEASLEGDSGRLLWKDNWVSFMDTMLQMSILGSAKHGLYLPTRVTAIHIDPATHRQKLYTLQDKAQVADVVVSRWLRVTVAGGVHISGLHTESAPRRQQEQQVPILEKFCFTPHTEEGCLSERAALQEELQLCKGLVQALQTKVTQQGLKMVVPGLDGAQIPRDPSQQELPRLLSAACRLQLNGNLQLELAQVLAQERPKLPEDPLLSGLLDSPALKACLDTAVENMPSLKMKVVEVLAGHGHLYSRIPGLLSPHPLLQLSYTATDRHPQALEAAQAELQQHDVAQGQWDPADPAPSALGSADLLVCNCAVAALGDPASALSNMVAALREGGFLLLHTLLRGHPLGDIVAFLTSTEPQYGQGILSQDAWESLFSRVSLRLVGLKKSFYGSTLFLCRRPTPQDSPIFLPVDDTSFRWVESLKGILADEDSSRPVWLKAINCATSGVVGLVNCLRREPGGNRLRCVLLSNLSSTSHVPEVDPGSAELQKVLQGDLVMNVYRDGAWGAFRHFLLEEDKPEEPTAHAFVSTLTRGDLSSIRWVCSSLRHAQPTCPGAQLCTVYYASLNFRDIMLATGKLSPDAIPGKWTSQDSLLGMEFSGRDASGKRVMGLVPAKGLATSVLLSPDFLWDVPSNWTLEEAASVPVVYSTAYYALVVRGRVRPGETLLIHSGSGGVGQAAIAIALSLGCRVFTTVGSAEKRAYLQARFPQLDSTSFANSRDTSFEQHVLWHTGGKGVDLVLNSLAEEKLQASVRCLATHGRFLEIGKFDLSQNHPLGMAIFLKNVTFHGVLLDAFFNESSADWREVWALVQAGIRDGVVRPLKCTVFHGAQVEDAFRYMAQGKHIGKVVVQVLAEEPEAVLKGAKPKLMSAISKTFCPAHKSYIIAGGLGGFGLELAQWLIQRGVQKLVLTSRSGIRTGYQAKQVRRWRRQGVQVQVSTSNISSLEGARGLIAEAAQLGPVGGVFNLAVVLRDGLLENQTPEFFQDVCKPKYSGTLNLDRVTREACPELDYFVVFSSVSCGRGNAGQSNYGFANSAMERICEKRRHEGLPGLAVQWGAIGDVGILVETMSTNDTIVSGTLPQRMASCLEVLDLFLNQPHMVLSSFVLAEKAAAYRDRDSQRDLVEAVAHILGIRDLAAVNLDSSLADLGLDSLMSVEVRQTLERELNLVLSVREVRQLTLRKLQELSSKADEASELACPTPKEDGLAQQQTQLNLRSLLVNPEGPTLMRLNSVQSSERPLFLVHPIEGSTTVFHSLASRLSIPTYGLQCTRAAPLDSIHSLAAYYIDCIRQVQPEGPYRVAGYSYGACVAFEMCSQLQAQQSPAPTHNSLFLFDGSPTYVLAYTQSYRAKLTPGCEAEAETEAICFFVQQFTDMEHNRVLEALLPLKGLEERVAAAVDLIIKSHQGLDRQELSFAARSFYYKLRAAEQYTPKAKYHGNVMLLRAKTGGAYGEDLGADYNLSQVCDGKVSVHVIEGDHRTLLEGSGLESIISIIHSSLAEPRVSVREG
Induced myeloid leukemia cell differentiation protein Mcl-1, sequence (Q07820 whole entry): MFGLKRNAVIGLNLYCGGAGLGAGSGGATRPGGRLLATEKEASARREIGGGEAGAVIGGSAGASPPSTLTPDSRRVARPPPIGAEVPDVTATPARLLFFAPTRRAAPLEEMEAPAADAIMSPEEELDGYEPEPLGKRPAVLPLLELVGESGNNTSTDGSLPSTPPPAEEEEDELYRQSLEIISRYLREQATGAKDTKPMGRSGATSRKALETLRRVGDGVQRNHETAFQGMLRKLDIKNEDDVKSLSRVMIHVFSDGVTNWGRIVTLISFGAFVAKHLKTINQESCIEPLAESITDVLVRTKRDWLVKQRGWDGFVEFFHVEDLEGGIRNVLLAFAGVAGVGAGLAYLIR
Luciferin 4-monooxygenase, sequence (P08659 whole entry): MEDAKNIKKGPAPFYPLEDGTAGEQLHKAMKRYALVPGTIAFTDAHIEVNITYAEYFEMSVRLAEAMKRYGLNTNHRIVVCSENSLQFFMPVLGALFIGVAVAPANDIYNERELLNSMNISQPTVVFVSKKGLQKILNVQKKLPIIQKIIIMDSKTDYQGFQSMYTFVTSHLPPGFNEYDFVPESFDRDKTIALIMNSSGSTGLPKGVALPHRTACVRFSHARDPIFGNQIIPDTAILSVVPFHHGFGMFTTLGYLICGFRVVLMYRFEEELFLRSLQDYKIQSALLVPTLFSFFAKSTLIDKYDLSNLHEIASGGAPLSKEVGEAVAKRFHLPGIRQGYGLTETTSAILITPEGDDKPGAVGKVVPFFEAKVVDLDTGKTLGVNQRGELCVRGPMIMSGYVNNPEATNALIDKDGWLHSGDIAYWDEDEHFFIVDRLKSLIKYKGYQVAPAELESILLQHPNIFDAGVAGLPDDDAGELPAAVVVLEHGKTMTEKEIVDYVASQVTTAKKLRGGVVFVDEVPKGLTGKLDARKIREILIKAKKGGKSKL

## COc1ccc(Cl)cc1NC(=O)Nc1cnccn1
[1]
  AC50: 2.19 µM (active)
[2]
  EC50: > 112 µM (not active)
[3]
  AC50: 14.2 µM (active)
[4]
  AC50: 3.57 µM (active)
[5]
  AC50: 37.9 µM (active)
[6]
  EC50: > 112 µM (not active)

## O=C(O)CC(NC(=O)CCC1CCCCC1)c1cc([N+](=O)[O-])ccc1Cl (configuration not stated)
[7]
  IC50: 10.7 µM (active)
[8]
  IC50: 8.7 µM (active)

## CC(C1CC2CCC1C2)n1c(S)nnc1-c1cccs1 (configuration not stated)
[9]
  EC50: 2.66 µM (active)

## CCCCc1ccc(NC(=O)CSC2=NN3CCCC(=O)N=C3S2)cc1
[10]
  EC50: > 300 µM (not active)
[11]
  CC50: > 40 µM (active)
[12]
  EC50: > 300 µM (not active)

## N#CCCSc1nc(N2CCOCC2)c2c(c1C#N)CCCC2
[7]
  IC50: 7.57 µM (active)
[8]
  IC50: 5.49 µM (active)

## CNC(=S)N(Cc1ccc(OC)cc1)C1CC(=O)N(c2ccc(Cl)cc2)C1=O (configuration not stated)
[7]
  IC50: 11 µM (active)
[8]
  IC50: 9.36 µM (active)

## CC(C)CCNC(=O)C(c1ccc(O)cc1)N(Cc1cccs1)C(=O)C1COc2ccccc2O1 (configuration not stated)
[13]
  EC50: 21.4 µM (active)
[14]
  AC50: > 52 µM (inactive)
[15]
  EC50: > 60 µM (inconclusive)
[16]
  EC50: 19.5 µM (active)
[17]
  AC50: 35.3 µM (active)
[18]
  EC50: 1.58 µM (active)

## Cc1ccc(-n2nc(-c3cccs3)cc2C(=O)NCC2CCCO2)c(C)c1 (configuration not stated)
[9]
  EC50: 4.73 µM (active)

## CCN(CC)S(=O)(=O)c1ccc(N2CCCC2)c(NC(=O)Cc2cc(OC)c(OC)c(OC)c2)c1
[1]
  AC50: 6.7 µM (active)
[3]
  AC50: 7.04 µM (active)
[4]
  AC50: 3.42 µM (active)
[5]
  AC50: 5.2 µM (active)

## CCOCCCNCc1cc(Br)ccc1OCc1ccccc1
[9]
  EC50: 1.33 µM (active)

## COc1ccc2nc(Nc3sc4c(c3C(N)=O)CCCC4)sc2c1
[19]
  IC50: 8.79 µM (active)

## Cc1ccc(Cn2nnnc2CN2CCC(c3nc4cc(Cl)ccc4[nH]3)CC2)cc1
[4]
  AC50: 19.5 µM (active)
[20]
  EC50: 7.23 µM (active)
[11]
  CC50: 6.84 µM (active)
[5]
  AC50: 2.37 µM (active)
[21]
  EC50: 10.5 µM (active)
[22]
  EC50: 2.45 µM (active)

## O=C(NCc1ccccc1)/C(=C\c1cccc([N+](=O)[O-])c1)NC(=O)c1ccco1
[7]
  IC50: 5.46 µM (active)
[8]
  IC50: 4.06 µM (active)
